Laboratory results published in article PMC7676998 (Journal of medicinal chemistry, 2019).
“And” between values parts separate entries of the source, which are not always exact repeats. Identical values can stand only once.

Experiments:
Sprague-Dawley rats = conditions: rat, in vivo, iv, 0.1 mg/kg
adrenergic α1D receptor = target: T1, adrenergic α1D receptor (Homo sapiens, UniProt P25100); assay: Radioligand binding, adrenergic α1D
T1 sequence (P25100 1-572): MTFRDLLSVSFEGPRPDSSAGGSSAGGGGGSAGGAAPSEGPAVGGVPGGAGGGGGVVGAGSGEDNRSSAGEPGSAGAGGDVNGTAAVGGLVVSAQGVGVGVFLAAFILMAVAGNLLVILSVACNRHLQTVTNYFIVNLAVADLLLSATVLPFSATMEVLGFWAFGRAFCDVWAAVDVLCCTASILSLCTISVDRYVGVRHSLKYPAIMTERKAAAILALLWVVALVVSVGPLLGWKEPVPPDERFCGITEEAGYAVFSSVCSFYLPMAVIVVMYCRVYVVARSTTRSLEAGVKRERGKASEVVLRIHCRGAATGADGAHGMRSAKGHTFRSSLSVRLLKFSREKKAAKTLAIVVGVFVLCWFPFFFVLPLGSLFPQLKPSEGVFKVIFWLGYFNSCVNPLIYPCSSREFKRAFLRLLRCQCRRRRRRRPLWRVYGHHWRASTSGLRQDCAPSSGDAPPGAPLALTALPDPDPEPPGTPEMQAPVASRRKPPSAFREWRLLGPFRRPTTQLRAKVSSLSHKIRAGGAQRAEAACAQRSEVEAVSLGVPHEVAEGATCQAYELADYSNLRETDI

MOP [1] = conditions: read-out: EC50 at MOP; other study ref 17; cited from earlier work
adrenergic α2A receptor = target: T2, adrenergic α2A receptor (Homo sapiens, UniProt P08913); assay: Radioligand binding, adrenergic α2A
T2 sequence (P08913 1-465): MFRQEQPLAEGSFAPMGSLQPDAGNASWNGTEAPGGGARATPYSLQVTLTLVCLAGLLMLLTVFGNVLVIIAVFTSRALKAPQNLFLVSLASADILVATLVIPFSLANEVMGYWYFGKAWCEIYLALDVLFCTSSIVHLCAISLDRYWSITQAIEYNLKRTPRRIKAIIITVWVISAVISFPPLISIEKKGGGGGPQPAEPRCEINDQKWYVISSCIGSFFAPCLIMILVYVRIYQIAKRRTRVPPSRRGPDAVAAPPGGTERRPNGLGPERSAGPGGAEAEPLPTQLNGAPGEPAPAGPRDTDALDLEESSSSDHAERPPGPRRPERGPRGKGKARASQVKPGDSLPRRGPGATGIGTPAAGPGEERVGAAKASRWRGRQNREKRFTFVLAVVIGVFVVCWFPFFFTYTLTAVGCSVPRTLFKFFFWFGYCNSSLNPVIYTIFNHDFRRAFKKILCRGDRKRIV

adrenergic α1A receptor = target: T3, adrenergic α1A receptor (Homo sapiens, UniProt P35348); assay: Radioligand binding, adrenergic α1A
T3 sequence (P35348 1-466): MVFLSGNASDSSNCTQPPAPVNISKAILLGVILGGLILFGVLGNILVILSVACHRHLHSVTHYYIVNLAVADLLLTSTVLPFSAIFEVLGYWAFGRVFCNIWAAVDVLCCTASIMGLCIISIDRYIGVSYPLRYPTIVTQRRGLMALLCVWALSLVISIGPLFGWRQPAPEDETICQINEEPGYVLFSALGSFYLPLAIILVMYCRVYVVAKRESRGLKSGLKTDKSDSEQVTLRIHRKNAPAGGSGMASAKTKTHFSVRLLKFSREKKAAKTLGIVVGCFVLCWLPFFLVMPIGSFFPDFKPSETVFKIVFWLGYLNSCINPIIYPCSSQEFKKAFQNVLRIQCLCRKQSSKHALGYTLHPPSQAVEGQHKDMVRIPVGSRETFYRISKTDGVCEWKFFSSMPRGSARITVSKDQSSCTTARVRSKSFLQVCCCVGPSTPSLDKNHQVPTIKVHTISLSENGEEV

mu opioid receptor (MOP) = mu opioid receptor (MOP) (Homo sapiens, UniProt P35372); type: binding
nociceptin NOP (ORL1) = nociceptin NOP (ORL1) (Homo sapiens, UniProt P41146); assay: Radioligand binding, nociceptin receptor
DOP = DOP (Homo sapiens, UniProt P41143); type: cell-based
adrenergic α1B receptor = target: T4, adrenergic α1B receptor (Homo sapiens, UniProt P35368); assay: Radioligand binding, adrenergic α1B
T4 sequence (P35368 1-520): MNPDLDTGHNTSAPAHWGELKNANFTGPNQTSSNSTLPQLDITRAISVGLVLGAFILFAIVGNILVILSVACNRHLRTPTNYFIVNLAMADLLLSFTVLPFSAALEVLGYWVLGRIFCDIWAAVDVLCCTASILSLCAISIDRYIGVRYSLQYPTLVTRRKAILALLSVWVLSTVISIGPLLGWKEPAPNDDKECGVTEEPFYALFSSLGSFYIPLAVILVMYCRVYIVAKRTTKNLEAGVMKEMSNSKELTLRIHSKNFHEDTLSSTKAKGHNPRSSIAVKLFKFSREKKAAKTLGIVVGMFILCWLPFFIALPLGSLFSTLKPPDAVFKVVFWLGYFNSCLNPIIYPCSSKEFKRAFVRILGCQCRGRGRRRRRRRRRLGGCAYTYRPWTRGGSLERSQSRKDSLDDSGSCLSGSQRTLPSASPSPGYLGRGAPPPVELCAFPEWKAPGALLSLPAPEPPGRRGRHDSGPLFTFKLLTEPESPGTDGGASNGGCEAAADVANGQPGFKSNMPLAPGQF

MOP [2] = target: MOP (Homo sapiens, UniProt P35372); type: cell-based
KOP = KOP (Homo sapiens, UniProt P41145); assay: cell-based; type: cell-based
Chain of KOP (P41145 whole entry): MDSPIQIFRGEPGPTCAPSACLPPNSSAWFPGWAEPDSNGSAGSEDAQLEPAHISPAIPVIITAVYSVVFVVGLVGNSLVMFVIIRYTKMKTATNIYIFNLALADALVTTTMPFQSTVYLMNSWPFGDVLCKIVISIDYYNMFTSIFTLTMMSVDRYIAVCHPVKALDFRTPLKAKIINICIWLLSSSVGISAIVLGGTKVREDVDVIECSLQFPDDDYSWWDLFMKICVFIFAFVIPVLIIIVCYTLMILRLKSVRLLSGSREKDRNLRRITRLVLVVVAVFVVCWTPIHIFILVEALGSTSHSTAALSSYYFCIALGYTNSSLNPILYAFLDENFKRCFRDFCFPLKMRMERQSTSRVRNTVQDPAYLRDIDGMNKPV

Chain of mu opioid receptor (MOP) (P35372 whole entry): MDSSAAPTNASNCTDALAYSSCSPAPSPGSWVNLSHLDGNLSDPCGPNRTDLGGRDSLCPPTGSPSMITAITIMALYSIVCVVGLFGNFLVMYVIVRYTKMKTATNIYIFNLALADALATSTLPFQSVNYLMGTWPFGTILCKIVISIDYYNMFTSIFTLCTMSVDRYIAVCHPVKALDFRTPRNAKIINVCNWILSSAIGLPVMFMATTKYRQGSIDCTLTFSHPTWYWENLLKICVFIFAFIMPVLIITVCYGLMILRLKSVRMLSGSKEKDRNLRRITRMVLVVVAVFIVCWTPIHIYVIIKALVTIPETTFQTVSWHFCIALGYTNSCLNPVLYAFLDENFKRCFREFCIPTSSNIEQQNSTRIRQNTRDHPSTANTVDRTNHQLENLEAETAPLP
Chain of nociceptin NOP (ORL1) (P41146 whole entry): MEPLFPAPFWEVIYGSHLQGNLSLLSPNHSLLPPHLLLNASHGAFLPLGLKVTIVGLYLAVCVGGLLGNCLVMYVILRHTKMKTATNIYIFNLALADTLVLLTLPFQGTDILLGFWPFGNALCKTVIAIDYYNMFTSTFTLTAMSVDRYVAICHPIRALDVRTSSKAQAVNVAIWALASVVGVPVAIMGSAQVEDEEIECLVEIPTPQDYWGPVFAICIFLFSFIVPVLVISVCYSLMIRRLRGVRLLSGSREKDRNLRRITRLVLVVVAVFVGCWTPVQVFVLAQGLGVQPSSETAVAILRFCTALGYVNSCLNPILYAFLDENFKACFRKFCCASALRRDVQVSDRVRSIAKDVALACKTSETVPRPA
Chain of MOP (Homo sapiens, UniProt P35372) (P35372 whole entry): as the sequence (P35372 whole entry) above
Chain of DOP (P41143 whole entry): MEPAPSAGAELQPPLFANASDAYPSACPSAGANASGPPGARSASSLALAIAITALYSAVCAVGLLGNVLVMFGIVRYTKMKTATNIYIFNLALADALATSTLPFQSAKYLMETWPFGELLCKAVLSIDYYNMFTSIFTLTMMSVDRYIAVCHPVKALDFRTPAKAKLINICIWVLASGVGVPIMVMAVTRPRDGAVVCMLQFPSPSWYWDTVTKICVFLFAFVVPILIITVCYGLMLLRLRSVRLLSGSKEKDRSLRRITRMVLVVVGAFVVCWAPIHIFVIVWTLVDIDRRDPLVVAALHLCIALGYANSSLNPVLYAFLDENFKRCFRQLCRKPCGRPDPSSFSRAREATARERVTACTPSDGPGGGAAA

CC[C@@H]1CN2CC[C@@]3(O)C(=Nc4cccc(OC)c43)[C@@H]2C[C@@H]1/C(=C\OC)C(=O)OC [7-hydroxymitragynine]
effect of naltrexone on antinociception (Sprague-Dawley rats): reversed | percent displacement of bound radioligand, adrenergic α1D (adrenergic α1D receptor; 100 nM test compound): −1.9% | percent displacement of bound radioligand, adrenergic α1D (adrenergic α1D receptor; 10,000 nM test compound): 13.5% | EC50 (MOP [1]): 53 ± 4 nM | percent displacement of bound radioligand, adrenergic a2A (adrenergic α2A receptor; 100 nM test compound): −6.7% | percent displacement of bound radioligand, adrenergic a2A (adrenergic α2A receptor; 10,000 nM test compound): −5.4% | percent displacement of bound radioligand, adrenergic α1A (adrenergic α1A receptor; 100 nM test compound): 10.1% | percent displacement of bound radioligand, adrenergic α1A (adrenergic α1A receptor; 10,000 nM test compound): 3.5% | percent displacement of bound radioligand, opioid μ (mu opioid receptor (MOP)): 81.8% and 100.7% | percent displacement of bound radioligand, nociceptin NOP (ORL1) (nociceptin NOP (ORL1); 100 nM test compound): −1.6% | percent displacement of bound radioligand, nociceptin NOP (ORL1) (nociceptin NOP (ORL1); 10,000 nM test compound): 3.4% | functional effect at DOP (DOP): competitive antagonist | percent displacement of bound radioligand, adrenergic α1B (adrenergic α1B receptor; 100 nM test compound): 5.9% | percent displacement of bound radioligand, adrenergic α1B (adrenergic α1B receptor; 10,000 nM test compound): −4.8% | functional effect at MOP (MOP [2]): full agonist | Kb (KOP): 115 nM | functional effect at KOP (KOP): competitive antagonist
